Laboratory results taken from US8293721B2, “CETP inhibitors derived from benzoxazole arylamides” (Merck Sharpe & Dohme Corp., priority 2007, dated 2012).

These compounds were tested against T1, recombinant human CETP (Homo sapiens, UniProt P11597) (assay: In vitro continuous CETP assay, CE transfer reaction (BODIPY-CE donor particles, fluorescence)). Settings: 25° C., 3% human serum, stated for the compounds 'or a stereoisomer of the compounds', read-out: IC50 value as measured for the CE transfer reaction.
T1 construct: made in house; host or cells: CHO cells
T1 sequence (P11597 18-493): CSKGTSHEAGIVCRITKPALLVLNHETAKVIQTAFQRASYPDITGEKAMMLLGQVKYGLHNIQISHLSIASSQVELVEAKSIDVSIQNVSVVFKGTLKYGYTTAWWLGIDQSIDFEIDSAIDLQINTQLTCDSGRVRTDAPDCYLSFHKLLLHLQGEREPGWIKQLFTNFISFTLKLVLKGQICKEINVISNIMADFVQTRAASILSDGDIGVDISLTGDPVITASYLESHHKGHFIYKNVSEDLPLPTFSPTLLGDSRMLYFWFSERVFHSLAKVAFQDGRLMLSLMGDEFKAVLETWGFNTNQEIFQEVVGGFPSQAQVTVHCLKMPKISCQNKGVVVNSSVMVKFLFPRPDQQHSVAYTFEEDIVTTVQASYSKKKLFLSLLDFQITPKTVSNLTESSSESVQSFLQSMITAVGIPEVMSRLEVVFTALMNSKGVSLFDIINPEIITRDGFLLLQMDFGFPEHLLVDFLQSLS
Type: biochemical
Method: An in vitro continuous assay for determining IC50's to identify compounds that are CETP inhibitors was performed based on a modification of the method described by Epps et al. employing BODIPY®-CE as the cholesteryl ester lipid donor and BODIPY®-TG as the triglyceride lipid donor. See Epps et al. (1995) Method for measuring the activities of cholesteryl ester transfer protein (lipid transfer protein), Chem. Phys. Lipids. 77, 51-63.
Particles used in the assay were created from the following materials by probe sonication essentially as described by Epps et al. Synthetic cholesteryl ester (CE) donor HDL particles contained DOPC (Dioleoyl Phosphatidyl Choline), BODIPY®-CE (Molecular Probes C-3927), triolein (a triglyceride), dabcyl dicetylamide, (a non-diffusable quencher molecule to reduce background fluorescence) and apoHDL. Synthetic triglyceride (TG) donor HDL particles contained DOPC, BODIPY®-TG, and apoHDL. BODIPY®-TG was synthesized at room temperature from diolein and the BODIPY containing fatty acid analog 4,4-difluoro-5-(2-thienyl)-4-bora-3a,4a-diaza-s-indacene-3-dodecanoic acid (Molecular Probes) in methylene chloride in the presence of dicyclohexyl carbodimide. Dabcyl dicetylamide was made by heating dabcyl n-succinimide with dicetylamine in DMF at 95° C. overnight in the presence of diisopropylamine catalyst. Native lipoproteins from human blood were used as acceptor particles. Particles having a density less than 1.063 g/ml were collected by ultracentrifugation. These particles include VLDL, IDL, and LDL. Particle concentrations were expressed in terms of protein concentration as determined by BCA assay (Pierce, USA). Particles were stored at 4° C. until use.
Assays were performed in Dynex Microfluor 2 U-bottom black 96-well plates (Cat #7205). An assay cocktail containing CETP, 1×CETP buffer (50 mM Tris, pH 7.4, 100 mM NaCl, 1 mM EDTA), 3% human serum, and half the final concentration of acceptor particles was prepared, and 100 μL of the assay cocktail was added to each well of the plate. Test compounds in DMSO were added in a volume of 3 μL. The plate was mixed on a plate shaker and then incubated at 25° C. for 1 hour. A second assay cocktail containing donor particles, the remaining acceptor particles and 1×CETP buffer was prepared. 47 μL of the second assay cocktail was added to the reaction wells to start the assay. Assays were performed in a final volume of 150 μL. CE transfer reactions were performed as follows: final concentrations of materials were: 2.5 ng/μL CE donor particles, 7.5 ng/μL acceptor particles (each expressed by protein content), 1×CETP buffer, 14-30 nM recombinant human CETP (expressed in CHO cells and partially purified), and up to 2% DMSO when testing compounds; reactions were followed in a fluorescence plate reader (Molecular Devices Spectramax GeminiXS) set for a 45 minute kinetic run at 25° C. which read the samples every 45 sec at Ex=480 nm, Em=511 nm, with a cutoff filter at 495 nm, photomultiplier tube setting of medium, calibration on, and 6 reads/well. TG transfer reactions were performed as described above with the exception that 2.5 ng/uL TG donor particles were used. TG transfer was measured at an excitation wavelength of 538 nm while reading emission at 568 nm every 45 sec for 45 min at 37° C. with a cutoff filter at 550 nm.
Data were evaluated by obtaining an initial rate, expressed in relative fluorescence units per second, for the pseudolinear portion of the curve, often 0-500 or 1000 sec. Comparison of the rates of samples with inhibitors to an uninhibited (DMSO only) positive control yielded a percent inhibition. A plot of percent inhibition vs. log of inhibitor concentration, fit to a Sigmoidal 4 parameter equation was used to calculate IC50.

IC50, 18 to 100 nM:
CC(C)c1cc(C#N)cc2nc(-c3ccc(C(=O)NCC4CN(c5ccc(-c6ccccc6OC(F)(F)F)cn5)C(=O)O4)cc3)oc12 (stereo not shown) [Example 2, 4-(5-Cyano-7-isopropyl-1,3-benzoxazol-2-yl)-N-[(2-oxo-3-{5-[2-(trifluoromethoxy)phenyl]pyridin-2-yl}-1,3-oxazolidin-5-yl)methyl]benzamide]
CC(C)COc1ccccc1-c1ccc(N2CC(CNC(=O)c3ccc(-c4nc5cc(C#N)cc(C(C)C)c5o4)cc3)OC2=O)nc1 (stereo not shown) [Example 7]
CC(C)Oc1ccc(F)cc1-c1ccc(N2C[C@@H](CNC(=O)c3ccc(-c4nc5cc(C#N)cc(C(C)C)c5o4)cc3)OC2=O)nc1 [Example 30]
COc1cc(F)c(C(C)C)cc1-c1ccc(N2C[C@@H](CNC(=O)c3ccc(-c4nc5cc(C#N)cc(C(C)C)c5o4)cc3)OC2=O)nc1 [Example 31]
COc1ccccc1-c1ccc(N2C[C@H](CNC(=O)c3ccc(-c4nc5cc(C#N)cc(C(C)C)c5o4)cc3)OC2=O)nc1 [Example 43]
CC(C)Oc1cccc(F)c1-c1ccc(N2C[C@H](CNC(=O)c3ccc(-c4nc5cc(C#N)cc(C(C)C)c5o4)cc3)OC2=O)nc1 [Example 48]
CC(C)c1cc(C#N)cc2nc(-c3ccc(C(=O)NCC4(C)CN(c5ccc(-c6ccccc6OC(F)(F)F)cn5)C(=O)O4)cc3)oc12 (stereo not shown) [Example 51, 4-(5-Cyano-7-isopropyl-1,3-benzoxazol-2-yl)-N-[(5-methyl-2-oxo-3-{5-[2-(trifluoro-methoxy)phenyl]pyridin-2-yl}-1,3-oxazolidin-5-yl)methyl]benzamide]
COc1ccccc1-c1ccc(N2CC(C)(CNC(=O)c3ccc(-c4nc5cc(C#N)cc(C(C)C)c5o4)cc3)OC2=O)nc1 (stereo not shown) [Example 53]
CC(C)Oc1ccc(F)cc1-c1ccc(N2CC(C)(CNC(=O)c3ccc(-c4nc5cc(C#N)cc(C(C)C)c5o4)cc3)OC2=O)nc1 (stereo not shown) [Example 54]
CC(C)c1cc(C#N)cc2nc(-c3ccc(C(=O)NCC4(C)CN(c5ccc(-c6ccccc6)cn5)C(=O)O4)cc3)oc12 (stereo not shown) [Example 55]
